{"source": "patent US20240423988A1", "about": "“Improvement of Tumor Immunogenicity by Means of Splicing-Controlling Compound” (Kyoto University, priority 2021, published 2024)", "key": {"[1]": {"tested_on": "MC38 tumors", "experiment": "MC38 tumor-bearing model", "assay_type": "in vivo", "protocol": "(§1) [FIG. 1-1] FIG. 1. Chemical activation of SRSFs exerts antitumor effects in a CD8^+ T cell-dependent manner and potentiates the response to PD-1 blockade. A: Experimental procedure involving an MC38 tumor-bearing model. B and C: Tumor volumes (B) and survival (C) are shown (n=12/group). ** represents p<0.01; and *** represents p<0.001. D and E: MC38 cells were treated with Compound 1 for 72 hours (D) or for the indicated time (E). Cell proliferation and cell death were measured using CCK-8 and LDH assays, respectively (n=3/group). F and G: Representative images (F) and quantitative data (G) of flow cytometry are shown (n=[…]/group). * represents p<0.05. H: Experimental procedure of antibody injection in an MC38 tumor-bearing model.\n[FIG. 1-2] Continuation of FIG. 1. I to L; Representative images (I and K) and quantitative data (J and L) of flow cytometry are shown (n=7/group for spleen (J); n=10/group for tumor (L)). *** represents p<0.001. M and N: Tumor growth curves (M) and tumor volumes on day 23 (N) are shown (n=10/group). * represents p<0.05. “ns” represents “not significant”. O and P: Tumor volumes of mice (n=12/group) are shown collectively (O) or individually (P). ** represents p<0.01, and *** represents p<0.001, vs. isotype IgG+vehicle. # represents p<0.05, and […] represents p<0.001, between the indicated groups. Q: Changes in body weight of mice (n=5/group). In FIG. 1, all data are shown as the mean±SEM. All experiments were performed at least twice. Statistical significance was determined using unpaired Student's t-test for (G), (J), (L), and (N), and one-way ANOVA followed by Bonferroni's multiple comparisons test for (B) and (O).\n(§2) First, in vivo activity was assessed using syngeneic MC38 tumors intradermally transplanted into […] mice (FIG. 1-1A).\nBased on these observations, whether the Compound 1 induced antitumor effects were due to enhanced cancer immunity was then examined. Endogenous CD8^+ T cells were depleted using CD8-depleting antibody (αCD8), and the antitumor effects of Compound 1 administration were evaluated (FIG. 1-1H)."}, "[2]": {"tested_on": "MC38 cells", "experiment": "Cell proliferation and cell death, CCK-8 and LDH assays", "assay_type": "cell-based, murine", "conditions": "concentrations effective in vivo", "protocol": "as §1, §2"}, "[3]": {"tested_on": "splenocytes (CD8^+ and CD4^+ T cells)", "experiment": "Ex vivo splenocyte culture assay (antigen-independent T cell activation)", "assay_type": "cell-based, mice", "conditions": "24 hours"}, "[4]": {"tested_on": "B2m-knockout MC38 clones", "experiment": "B2m KO MC38 clones and negative control clone intradermally inoculated into mice", "assay_type": "in vivo", "protocol": "[FIG. 3-2] Continuation of FIG. 3. G to J: The experimental schema (G), tumor volumes (H), flow cytometric images (I), as well as quantitative data (J) of tumor-infiltrating CD8^+ T cells on day 23 are shown (n=5 to 9/group). * represents p<0.05, and ** represents p<0.01. K: Tumor volumes of mice (n=5 to 6/group). Mice were intraperitoneally injected with 35 μg of αPD-L1 antibody or isotype control (isotype IgG) once weekly on days 9 and 16 for NC and days 11 and 18 for B2M KO #2. * represents p<0.05. All data are shown as the mean±SEM. Experiments were performed at least twice for A to F, or once for others. Statistical significance was determined using unpaired Student's t-test for (H), (J), and (K) and one-way ANOVA followed by Bonferroni's multiple comparisons test for (D) and (F).\nFurthermore, whether neoantigen presentation in cancer cells is important for the antitumor effects of Compound 1 was investigated by establishing a CRISPR-Cas9-mediated knockout of B2m, an essential component of MHC class I, using MC38 cells. […] It was further confirmed that surface H-2K^b on these cells disappeared (FIGS. 3-1C and 3-1D) without affecting IFN-γ signaling (FIG. 3-1A) and the expression of PD-L1 on the cell surface (FIGS. 3-1E and 3-1F).\nThen, these B2m KO MC38 clones were intradermally inoculated into immunodeficient mice, and the antitumor effects of Compound 1 were evaluated (FIG. 3-2G)."}, "[5]": {"tested_on": "colon, lung, and liver tissues", "experiment": "RNA-seq of normal tissues from Compound 1-administered mice", "assay_type": "in vivo", "description": "In addition, the RNA-seq data corresponding to colon, lung, and liver tissues from Compound 1-administered mice was also examined to analyze the extent of splicing alterations. […] Considering that immune responses were not triggered by Compound 1 in these tissues, these altered splicing events in normal tissues were likely irrelevant to immunogenicity (FIGS. 2-2I to 2-3M)."}, "[6]": {"conditions": "syngeneic MC38 tumors intradermally transplanted"}}}
{"smiles": "Clc1nc(NCc2ccco2)c2[nH]cnc2n1", "note": "[Compound 1]", "values": [{"measurement": "tumor suppression when CD8^+ T cells were depleted", "setting": "[1]; CD8-depleting antibody (αCD8)", "result": "not effective"}, {"measurement": "suppressed tumor growth", "setting": "[1]; day 23, vs. isotype IgG+vehicle", "result": 28.5, "unit": "%"}, {"measurement": "frequency of tumor-infiltrating CD8+ T cells", "setting": "[1]; extracted tumors, flow cytometry", "result": "about 1.5 fold"}, {"measurement": "changes in the expression of PD-L1", "setting": "[1]; host dendritic cells or macrophages", "result": "not detected"}, {"measurement": "body weight or apparent adverse effects", "setting": "[1]; mouse, in vivo", "result": "no change in body weight or apparent adverse effects"}, {"measurement": "in vivo tumor growth", "setting": "[1]; [6]", "result": "tumor growth suppression"}, {"measurement": "survival", "setting": "[1]; [6]", "result": "prolonged survival"}, {"measurement": "cytotoxicity or cytostasis in vitro", "setting": "[2]", "result": "not associated with cytotoxicity or cytostasis"}, {"measurement": "CD44^+ and CD69^+ marker expressions in CD8^+ and CD4^+ T cells", "setting": "[3]; flow cytometry", "result": "no such effects"}, {"measurement": "secretion of inflammatory cytokines IFN-γ and TNF-α", "setting": "[3]; supernatant", "result": "not observed"}, {"measurement": "antitumor effects (tumor growth)", "setting": "[4]; B2m KO clones", "result": "completely abolished"}, {"measurement": "number of CD8^+ T cells in tumors", "setting": "[4]; B2m KO-derived tumors", "result": "no longer inducible"}, {"measurement": "antitumor effects (tumor growth)", "setting": "[4]; negative control clone", "result": "suppressed tumor growth"}, {"measurement": "induced splicing events fewer in normal tissues than in MC38 cells", "setting": "[5]; colon, lung, liver", "result": "50-60%"}, {"measurement": "validated splice-neoantigen forms in normal tissues", "setting": "[5]; data not shown", "result": "none of the validated splice-neoantigen forms were significantly induced"}]}
